Results taken from patent US7803801B2, “Aminopyridine compounds having Syk inhibitory activity” (Japan Tobacco, Inc., priority 2005, dated 2010).
Counter-ions that a name gives are not always drawn. Like-named read-outs stand apart in the source and are kept apart here.

How the values were obtained:
[1] = system: cultured human mast cells; assay: Degranulation inhibition test using cultured human mast cells (IgE cross-linking, β-Hexosaminidase release); assay type: cell-based; settings: Mast cell, cultured human mast cells, read-out: human degranulation ave. IC50
Method in brief: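 CD34+ cord-blood cells cultured ≥8 weeks with SCF/IL-6/IL-3; FcεRI primed 5 days with rhIL-4 (1 ng/mL) and hIgE (0.5 μg/mL). Compound (0.1% DMSO) preincubated 10 min at 37 °C, then anti-IgE (final 10 μg/mL) 30 min; released β-hexosaminidase read at 405 nm versus total lysate, IC50 (M).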

[2] = target: GST-Syk Full Protein (human) (Homo sapiens, UniProt P43405); assay: Syk kinase inhibition test (HTRF method); assay type: biochemical
Method in brief: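 Human GST-Syk full-length (6.4 nM) phosphorylated biotin-EDPDYEWPSA-NH2 (250 nM) with 100 μM ATP in HEPES pH 7.0/MgCl2 buffer, 2% DMSO, 30 min at room temperature. EDTA stop, then HTRF detection (streptavidin-XL665, Eu anti-phosphotyrosine) after 1 h; 665/620 ratio read.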

[3] = anti-hIgE stimulation, β-Hexosaminidase index, average
[4] = HTRF, 100 μM ATP, 30 min room temperature, average, read-out: sykHTRF ave IC50
[5] = Tables 1-x, compounds A, read-out: sykHTRF ave IC50
[6] = Tables 2-x, thiophene compounds B
[7] = Tables 2-x, thiophene compounds B, read-out: sykHTRK ave IC50

Row | SMILES | IC50 [1, 3] [nM] | IC50 [2, 4] [nM] | other results
1 | Cc1ccnc(Nc2cccc(-c3cnc([C@@H]4CCC(=O)N4)s3)n2)c1 [Compound A-55, (S)-5-{5-[6-(4-methylpyridin-2-ylamino)pyridin-2-yl]thiazol-2-yl}pyrrolidin-2-one] | 100 to 1000 | < 100 | –
2 | CNC(=O)COCc1ncc(-c2cccc(Nc3cc(C)ccn3)n2)s1 [Compound A-367] | 100 to 1000 | 100 to 1000 | –
3 | Cc1ccnc(Nc2cccc(-c3cnc([C@@H]4CCCC(=O)N4)s3)n2)c1 [Compound A-363] | 100 to 1000 | 100 to 1000 | –
4 | CCOC(=O)CCC(=O)N[C@@H](C)c1ncc(-c2cccc(Nc3cc(C)ccn3)n2)s1 [Compound A-120] | > 1000 | > 1000 | –
5 | Cc1ccnc(Nc2cccc(-c3cnc(N4CCC(CC(=O)O)CC4)s3)n2)c1 [Compound A-15, (1-{5-[6-(4-methylpyridin-2-ylamino)pyridin-2-yl]thiazol-2-yl}piperidin-4-yl)acetic acid dihydrochloride] | 100 to 1000 | < 100 | –
6 | Cc1ccnc(Nc2cccc(-c3cnc(N(C)C4CCN(C(=O)CCC(=O)O)CC4)s3)n2)c1 [Compound A-553, 4-[4-(N-methyl-N-{5-[6-(4-methylpyridin-2-ylamino)pyridin-2-yl]thiazol-2-yl}amino)piperidin-1-yl]-4-oxobutyric acid] | – | – | IC50 ([1]; Tables 1-x, compounds A): > 1000 nM; IC50 [2, 5]: < 100 nM
7 | Cc1ccnc(Nc2cccc(-c3ccc(C(=O)NCC(=O)O)s3)n2)c1 [Compound B-99] | – | – | IC50 [1, 6]: > 1000 nM; IC50 [2, 7]: 100 to 1000 nM
8 | Cc1ccnc(Nc2cccc(-c3cnc(C(=O)NCC(C)(C)CO)s3)n2)c1 [Compound A-62] | > 1000 | 100 to 1000 | –
9 | Cc1ccnc(Nc2cccc(-c3ccc(C(=O)O)s3)n2)c1 [Compound B-20] | – | – | IC50 [1, 6]: > 1000 nM; IC50 [2, 7]: 100 to 1000 nM
10 | CONC(=O)c1ccc(-c2cccc(Nc3cc(C)ccn3)n2)s1 [Compound B-64] | – | – | IC50 [1, 6]: 100 to 1000 nM; IC50 [2, 7]: 100 to 1000 nM
11 | O=C(O)Cc1ccnc(Nc2cccc(-c3cnc([C@@H]4CCC(=O)N4)s3)n2)c1 [Compound A-340] | 100 to 1000 | 100 to 1000 | –
12 | CC(=O)c1ccc(-c2cccc(Nc3cc(OCCO)ccn3)n2)s1 [Compound B-73, 1-(5-{6-[4-(2-hydroxyethoxy)pyridin-2-ylamino]pyridin-2-yl}thiophen-2-yl)ethanone] | – | – | IC50 [1, 6]: 100 to 1000 nM; IC50 [2, 7]: < 100 nM
13 | Cc1ccnc(Nc2cccc(-c3cnc(C(=O)NCCCO)s3)n2)c1 [Compound A-53] | 100 to 1000 | 100 to 1000 | –
14 | CNC(=O)[C@H]1CC[C@H](c2ncc(-c3cccc(Nc4cc(C)ccn4)n3)s2)CC1 [Compound A-336, N-methyl-trans-4-{5-[6-(4-methylpyridin-2-ylamino)pyridin-2-yl]thiazol-2-yl}cyclohexanecarboxamide] | 100 to 1000 | < 100 | –
15 | CCOC(=O)c1cc(Nc2cc(C)ccn2)nc(-c2ccc(C(C)=O)s2)c1 [Compound B-77] | – | – | IC50 [1, 6]: > 1000 nM; IC50 [2, 7]: > 1000 nM
16 | Cc1ccnc(Nc2cccc(-c3cnc(N4C[C@@H](O)[C@@H](O)C4)s3)n2)c1 [Compound A-423, (3R,4S)-1-{5-[6-(4-methylpyridin-2-ylamino)pyridin-2-yl]thiazol-2-yl}pyrrolidine-3,4-diol] | – | – | IC50 ([1]; Tables 1-x, compounds A): 100 to 1000 nM; IC50 [2, 5]: < 100 nM
17 | Cc1ccnc(Nc2cccc(-c3cnc([C@H]4CC[C@H](C(=O)N5C[C@H](O)C[C@@H](O)C5)CC4)s3)n2)c1 [Compound A-226] | 100 to 1000 | 100 to 1000 | –
18 | Cc1ccnc(Nc2cccc(-c3cnc(CN4CCC(O)C4)s3)n2)c1 (centres unmarked) [Compound A-380] | – | – | IC50 ([1]; Tables 1-x, compounds A): 100 to 1000 nM; IC50 [2, 5]: 100 to 1000 nM
19 | CC(=O)N[C@@H](Cc1ccccc1)c1ncc(-c2cccc(Nc3cc(C)ccn3)n2)s1 [Compound A-41] | > 1000 | 100 to 1000 | –
